Assay results: ChEMBL document CHEMBL1144675, “Stereospecific synthesis and bio-activity of novel beta(3)-adrenoceptor agonists and inverse agonists” (Bioorg Med Chem, 2008)
Calls of active or inactive are those of the source. The calls are words filed in the database; no cut-off is given here.

Key:
[1] = target: T1, Beta-3 adrenergic receptor (Homo sapiens, UniProt P13945); assay: Agonist activity at human adrenergic beta-3 receptor expressed in CHO cells assessed as cAMP levels by DELFIA method; format: functional, cell-based
T1 sequence (P13945 whole entry): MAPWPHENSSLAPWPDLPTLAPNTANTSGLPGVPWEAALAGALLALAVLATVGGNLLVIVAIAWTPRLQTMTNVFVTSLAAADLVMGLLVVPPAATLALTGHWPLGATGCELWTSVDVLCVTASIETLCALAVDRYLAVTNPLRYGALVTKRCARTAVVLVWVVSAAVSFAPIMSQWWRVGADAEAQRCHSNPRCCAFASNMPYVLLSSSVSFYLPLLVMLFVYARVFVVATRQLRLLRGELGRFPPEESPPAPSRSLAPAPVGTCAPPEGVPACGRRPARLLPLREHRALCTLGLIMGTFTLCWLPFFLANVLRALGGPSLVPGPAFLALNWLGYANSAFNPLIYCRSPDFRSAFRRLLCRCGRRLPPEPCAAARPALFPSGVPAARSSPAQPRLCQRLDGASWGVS

[2] = target: Beta-1 adrenergic receptor (Homo sapiens) (UniProt P08588); assay: Displacement of [3H]dihydroalprenolol from human adrenergic beta-1 receptor expressed in CHO cells at 10 uM; format: cell-based
Beta-1 adrenergic receptor (Homo sapiens), sequence (P08588 whole entry, looked up): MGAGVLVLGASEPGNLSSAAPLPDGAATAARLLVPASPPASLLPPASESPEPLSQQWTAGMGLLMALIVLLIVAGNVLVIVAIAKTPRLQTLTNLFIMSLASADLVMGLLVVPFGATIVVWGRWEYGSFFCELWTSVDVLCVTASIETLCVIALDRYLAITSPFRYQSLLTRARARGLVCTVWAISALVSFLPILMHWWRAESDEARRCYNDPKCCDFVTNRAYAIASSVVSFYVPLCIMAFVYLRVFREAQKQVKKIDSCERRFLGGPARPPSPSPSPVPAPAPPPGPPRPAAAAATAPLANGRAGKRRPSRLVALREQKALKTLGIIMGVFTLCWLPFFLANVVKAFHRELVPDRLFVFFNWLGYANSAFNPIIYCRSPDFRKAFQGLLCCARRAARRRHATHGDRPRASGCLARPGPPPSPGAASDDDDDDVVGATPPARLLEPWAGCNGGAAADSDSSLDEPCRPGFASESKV

[3] = target: Beta-2 adrenergic receptor (Homo sapiens) (UniProt P07550); assay: Displacement of [3H]dihydroalprenolol from human adrenergic beta-2 receptor expressed in CHO cells at 10 uM; format: cell-based
Beta-2 adrenergic receptor (Homo sapiens), sequence (P07550 whole entry, looked up): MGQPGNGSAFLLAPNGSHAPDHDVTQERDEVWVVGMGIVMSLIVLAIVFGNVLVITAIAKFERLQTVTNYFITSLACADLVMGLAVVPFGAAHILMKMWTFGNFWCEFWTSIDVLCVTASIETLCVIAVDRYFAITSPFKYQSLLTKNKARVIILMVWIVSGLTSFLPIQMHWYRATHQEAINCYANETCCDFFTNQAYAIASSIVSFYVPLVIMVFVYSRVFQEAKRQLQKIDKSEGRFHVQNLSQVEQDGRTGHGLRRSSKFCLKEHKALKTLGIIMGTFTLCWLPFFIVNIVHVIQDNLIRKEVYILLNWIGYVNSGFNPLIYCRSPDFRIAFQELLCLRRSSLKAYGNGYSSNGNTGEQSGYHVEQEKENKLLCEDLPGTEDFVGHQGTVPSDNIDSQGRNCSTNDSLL

[4] = target: T2, Peroxisome proliferator-activated receptor alpha (Mus musculus) (UniProt P23204); assay: Agonist activity at mouse PPARalpha receptor in monkey COS7 cells assessed as activation of CAT reporter gene at 50 uM by transactivation assay relative to Wy,14-643; format: functional, cell-based; conditions: COS-7
T2 sequence (whole entry): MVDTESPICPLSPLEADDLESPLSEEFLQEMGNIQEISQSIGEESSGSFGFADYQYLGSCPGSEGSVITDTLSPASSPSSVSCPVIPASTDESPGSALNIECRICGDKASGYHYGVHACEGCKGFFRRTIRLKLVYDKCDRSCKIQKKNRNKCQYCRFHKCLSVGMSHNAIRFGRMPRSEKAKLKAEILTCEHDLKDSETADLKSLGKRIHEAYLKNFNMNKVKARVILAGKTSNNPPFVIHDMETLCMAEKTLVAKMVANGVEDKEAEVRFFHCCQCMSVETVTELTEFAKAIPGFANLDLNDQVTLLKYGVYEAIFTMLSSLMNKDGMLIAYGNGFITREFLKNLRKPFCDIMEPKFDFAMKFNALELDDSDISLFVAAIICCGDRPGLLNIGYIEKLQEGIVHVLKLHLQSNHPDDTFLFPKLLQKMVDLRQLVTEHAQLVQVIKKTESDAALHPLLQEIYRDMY

[5] = target: T2, Peroxisome proliferator-activated receptor alpha (Mus musculus); assay: Agonist activity at mouse PPARalpha receptor in monkey COS7 cells assessed as activation of CAT reporter gene at 150 uM by transactivation assay relative to Wy,14-643; format: functional, cell-based; conditions: COS-7
[6] = target: T2, Peroxisome proliferator-activated receptor alpha (Mus musculus); assay: Agonist activity at mouse PPARalpha receptor in monkey COS7 cells assessed as activation of CAT reporter gene at 300 uM by transactivation assay relative to Wy,14-643; format: functional, cell-based; conditions: COS-7
[7] = target: T2, Peroxisome proliferator-activated receptor alpha (Mus musculus); assay: Agonist activity at mouse PPARalpha receptor in monkey COS7 cells assessed as activation of CAT reporter gene at 2 uM by transactivation assay relative to Wy,14-643; format: functional, cell-based; conditions: COS-7
[8] = target: Beta-3 adrenergic receptor (Rattus norvegicus) (UniProt P26255); assay: Antagonist activity at adrenergic beta-3 receptor in rat proximal colon assessed as colon motility; format: functional, tissue-based
Beta-3 adrenergic receptor (Rattus norvegicus), sequence (P26255 whole entry): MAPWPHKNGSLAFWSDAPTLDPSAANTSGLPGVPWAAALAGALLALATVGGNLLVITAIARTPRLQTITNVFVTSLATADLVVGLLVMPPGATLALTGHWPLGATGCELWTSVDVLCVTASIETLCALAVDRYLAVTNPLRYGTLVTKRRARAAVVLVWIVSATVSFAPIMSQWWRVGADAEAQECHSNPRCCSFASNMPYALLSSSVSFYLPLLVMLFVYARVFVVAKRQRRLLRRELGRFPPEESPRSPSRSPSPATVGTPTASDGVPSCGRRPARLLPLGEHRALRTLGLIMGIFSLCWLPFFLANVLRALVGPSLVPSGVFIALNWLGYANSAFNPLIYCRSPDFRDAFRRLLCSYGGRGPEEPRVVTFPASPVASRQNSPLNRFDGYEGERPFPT

[9] = target: T1, Beta-3 adrenergic receptor
Description: Agonist activity at human adrenergic beta3 receptor expressed in CHO cells assessed as [3H]cAMP levels by radiolabeled ligand based assay

C[C@H](Oc1ccc(CCNC[C@H](O)c2ccccc2)cc1)C(=O)O (single isomer, unassigned)
EC50 [1]: 2.7 nM | inhibition [2]: 28% | inhibition [3]: 1% | Activity [4]: 1.6% | Activity [5]: 1.8% | Activity [6]: 1.5%

CC(Oc1ccc(CCNCC(O)c2ccccc2)cc1)C(=O)O (racemic)
EC50 [1]: 3.8 nM | inhibition [2]: 37% | inhibition [3]: 24% | Activity [4]: 1.5% | Activity [5]: 1.9% | Activity [6]: 1.8%

CC(C)(Oc1ccc(CCNC[C@H](O)c2ccccc2)cc1)C(=O)O
inhibition [2]: 8% | inhibition [3]: 1% | Activity [4]: 1.3% | Activity [5]: 1.5% | Activity [6]: 1.5%

CC(C)(Oc1ccc(CCNC[C@@H](O)c2ccccc2)cc1)C(=O)O
inhibition [2]: 13% | inhibition [3]: 5% | Activity [4]: 1.7% | Activity [5]: 1.5% | Activity [6]: 2.1%

Cc1cccc(Nc2cc(Cl)nc(SCC(=O)O)n2)c1C
Activity [7]: 100%

C[C@H](Oc1ccc(CCNC[C@@H](O)c2ccccc2)cc1)C(=O)O
EC50 [1]: 181 nM | Activity [8]: Active | inhibition [2]: 14% | inhibition [3]: 9% | Activity [4]: 1% | Activity [5]: 1% | Activity [6]: 1.8%

CC(C)(Oc1ccc(Cl)cc1)C(=O)O
Activity [6]: 86.5%

C[C@@H](Oc1ccc(CCNC[C@H](O)c2ccccc2)cc1)C(=O)O
EC50 [1]: 235 nM | inhibition [2]: 6% | inhibition [3]: 2% | Activity [4]: 1.1% | Activity [5]: 1.5% | Activity [6]: 2.6%

CCOC(=O)C(C)(C)Oc1ccc(Cl)cc1
Activity [4]: 12.6% | Activity [5]: 11% | Activity [6]: 89.9%

CC(C)(Oc1ccc(CCNCC(O)c2ccccc2)cc1)C(=O)O (racemic)
EC50 [1]: 4.9 nM | inhibition [2]: 18% | inhibition [3]: 24% | Activity [4]: 2% | Activity [5]: 1.7% | Activity [6]: 1.8%

C[C@@H](Oc1ccc(CCNC[C@@H](O)c2ccccc2)cc1)C(=O)O (single isomer, unassigned)
EC50 [1]: 136 nM | Activity [8]: Active | inhibition [2]: 10% | inhibition [3]: 1% | Activity [4]: 1.3% | Activity [5]: 2% | Activity [6]: 3.6%

CNC[C@H](O)c1ccc(O)c(O)c1 [EPINEPHRINE]
EC50 [1]: 31 nM | EC50 [9]: 49 nM
